Experimental data published in PubChem BioAssay AID248 (DTP/NCI, 2004).
Toxic doses and inconclusive results are not listed. Cut-off read from the data, not from the text of the source: active = T/C of 150% or more; inactive = T/C below 125%.

System: L1210 leukemia ip in BDF1 mice, survival T/C
Assay: NCI In Vivo Anticancer Drug Screen. Data for tumor model L1210 Leukemia (intraperitoneal) in B6D2F1 (BDF1) mice
Conditions: endpoint: mean survival time, higher = longer survival
How it was run: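 Transplanted-tumor mice were given test agent; controls received vehicle only. Survival readings from the two groups were divided (treated over control).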

[1] = dose: 100.0 mg/kg/injection, schedule: Q01DX001 (ip), vehicle: saline
[2] = dose: 100.0 mg/kg/injection, schedule: Q04DX003 (ip), vehicle: saline
[3] = dose: 200.0 mg/kg/injection, schedule: Q01DX001 (ip), vehicle: saline
[4] = dose: 400.0 mg/kg/injection, schedule: Q01DX001 (ip), vehicle: saline
[5] = dose: 200.0 mg/kg/injection, schedule: Q04DX002 (ip), vehicle: Klucel (hydroxypropylcellulose) (HPC)
[6] = dose: 400.0 mg/kg/injection, schedule: Q04DX002 (ip), vehicle: Klucel (hydroxypropylcellulose) (HPC)
[7] = dose: 100.0 mg/kg/injection, schedule: Q01DX009 (ip), vehicle: Klucel (hydroxypropylcellulose) (HPC)
[8] = dose: 200.0 mg/kg/injection, schedule: Q01DX009 (ip), vehicle: Klucel (hydroxypropylcellulose) (HPC)
[9] = dose: 400.0 mg/kg/injection, schedule: Q01DX009 (ip), vehicle: Klucel (hydroxypropylcellulose) (HPC)
[10] = dose: 100.0 mg/kg/injection, schedule: Q04DX003 (ip), vehicle: saline with Tween-80
[11] = dose: 200.0 mg/kg/injection, schedule: Q04DX003 (ip), vehicle: saline with Tween-80
[12] = dose: 400.0 mg/kg/injection, schedule: Q04DX003 (ip), vehicle: saline with Tween-80
[13] = dose: 100.0 mg/kg/injection, schedule: Q04DX003 (ip), vehicle: Klucel (hydroxypropylcellulose) (HPC)
[14] = dose: 100.0 mg/kg/injection, schedule: Q04DX002 (ip), vehicle: Klucel (hydroxypropylcellulose) (HPC)
[15] = dose: 100.0 mg/kg/injection, schedule: Q01DX009 (ip), vehicle: saline

Measured: T/C

CCCc1cn(C(=O)NC2CCCCC2)c2ccccc12
inactive: [1] 94 % of control | [2] 106 % of control | [3] 94 % of control | dose: 200.0 mg/kg/injection, schedule: Q04DX003 (ip), vehicle: saline 112 % of control | [4] 87 % of control | dose: 400.0 mg/kg/injection, schedule: Q04DX003 (ip), vehicle: saline 93 % of control

COC1OC2COC(c3ccccc3)OC2C(OC(=S)SCc2ccccc2)C1OC(=O)c1ccccc1 (configuration not stated)
inactive: dose: 25.0 mg/kg/injection, schedule: Q04DX002 (ip), vehicle: saline 100 % of control | dose: 50.0 mg/kg/injection, schedule: Q04DX002 (ip), vehicle: saline 88 % of control | dose: 100.0 mg/kg/injection, schedule: Q04DX002 (ip), vehicle: saline 98 % of control | [5] 86 % of control | [6] 90 % of control

CCCCOc1ccc(OC(=O)Nc2ccc(C(=O)OCC)cc2)cc1
inactive: [7] 98 % of control | [8] 95 % of control | [9] 97 % of control

N/C(=N/N=C/c1ccc(N(CCCl)CCCl)cc1)N[N+](=O)[O-]
inactive: dose: 15.0 mg/kg/injection, schedule: Q01DX Z (ip), vehicle: methylcellulose (MC) 89 % of control | dose: 30.0 mg/kg/injection, schedule: Q01DX Z (ip), vehicle: methylcellulose (MC) 93 % of control | dose: 60.0 mg/kg/injection, schedule: Q01DX Z (ip), vehicle: methylcellulose (MC) 96 % of control | dose: 60.0 mg/kg/injection, schedule: Q01DX Z (oral), vehicle: methylcellulose (MC) 94 % of control | dose: 120.0 mg/kg/injection, schedule: Q01DX Z (ip), vehicle: methylcellulose (MC) 96 % of control | dose: 120.0 mg/kg/injection, schedule: Q01DX Z (oral), vehicle: methylcellulose (MC) 101 % of control | dose: 240.0 mg/kg/injection, schedule: Q01DX Z (ip), vehicle: methylcellulose (MC) 104 % of control | dose: 480.0 mg/kg/injection, schedule: Q01DX Z (ip), vehicle: methylcellulose (MC) 94 % of control

CC(=O)c1cccc(NC(=O)Nc2cccc(O)c2)c1
inactive: [7] 101 % of control | [8] 97 % of control | [9] 101 % of control

N/N=C(\c1ccccc1)c1ccc(Cl)cc1
inactive: dose: 100.0 mg/kg/injection, schedule: Q01DX001 (ip), vehicle: carboxymethylcellulose (CMC) 96 % of control | dose: 200.0 mg/kg/injection, schedule: Q01DX001 (ip), vehicle: carboxymethylcellulose (CMC) 87 % of control | dose: 400.0 mg/kg/injection, schedule: Q01DX001 (ip), vehicle: carboxymethylcellulose (CMC) 95 % of control

C=C1C(=O)O[C@@H]2[C@H]1CC[C@H](C)[C@@H]1CCC(=O)[C@@]21C
inactive: [1] 102 % of control | [3] 100 % of control | [4] 98 % of control

O=C(O)C1CC2CCC1CC2 (configuration not stated)
inactive: [1] 104 % of control | [7] 100 % of control | [10] 92 % of control | [3] 93 % of control | [8] 92 % of control | [11] 95 % of control | [4] 100 % of control | [9] 92 % of control | [12] 101 % of control

CN1C(=O)CN=C(c2ccccn2)c2cc(Cl)ccc21
inactive: dose: 100.0 mg/kg/injection, schedule: Q01DX001 (ip), vehicle: saline sonified 112 % of control | dose: 200.0 mg/kg/injection, schedule: Q01DX001 (ip), vehicle: saline sonified 96 % of control | dose: 400.0 mg/kg/injection, schedule: Q01DX001 (ip), vehicle: saline sonified 103 % of control

CC12CCC(=O)C=C1CCC1C2CCC2(C)C(C(=O)COC(=O)c3cc([N+](=O)[O-])c(N4CC4)c([N+](=O)[O-])c3)CCC12 (configuration not stated)
inactive: dose: 50.0 mg/kg/injection, schedule: Q01DX001 (sc), vehicle: steriod suspending solution 95 % of control | dose: 60.0 mg/kg/injection, schedule: Q01DX015 (ip), vehicle: saline 88 % of control | dose: 90.0 mg/kg/injection, schedule: Q01DX015 (ip), vehicle: saline 86 % of control | dose: 100.0 mg/kg/injection, schedule: Q01DX001 (sc), vehicle: steriod suspending solution 106 % of control | dose: 135.0 mg/kg/injection, schedule: Q01DX015 (ip), vehicle: saline 88 % of control | dose: 200.0 mg/kg/injection, schedule: Q01DX001 (sc), vehicle: steriod suspending solution 97 % of control | dose: 200.0 mg/kg/injection, schedule: Q01DX015 (ip), vehicle: saline 91 % of control | dose: 400.0 mg/kg/injection, schedule: Q01DX001 (sc), vehicle: steriod suspending solution 101 % of control

O=C(CCl)N1CC2CCC(CC2)C1
inactive: [13] 97 % of control

Cc1[nH]ncc1Br
inactive: [10] 98 % of control | [11] 92 % of control | [12] 103 % of control

Oc1nc(/N=C2/N=c3ccc(Cl)cc3=N2)[nH]c1O
inactive: [13] 98 % of control | dose: 200.0 mg/kg/injection, schedule: Q04DX003 (ip), vehicle: Klucel (hydroxypropylcellulose) (HPC) 106 % of control | dose: 400.0 mg/kg/injection, schedule: Q04DX003 (ip), vehicle: Klucel (hydroxypropylcellulose) (HPC) 98 % of control

CC(C)(C)N(Cc1ccccc1)Cc1ccccc1
inactive: [10] 96 % of control | [11] 98 % of control | [12] 96 % of control

COc1ccc(OC)c(/C=N/NC(=O)C[N+](C)(C)C)c1
inactive: dose: 50.0 mg/kg/injection, schedule: Q01DX009 (ip), vehicle: saline with Tween-80 88 % of control | dose: 100.0 mg/kg/injection, schedule: Q01DX009 (ip), vehicle: saline with Tween-80 86 % of control

CCCCCCCCCCCCC[As](=O)(O)CCCCCCCCCCCCC
inactive: dose: 50.0 mg/kg/injection, schedule: Q01DX001 (ip), vehicle: saline 95 % of control | [1] 103 % of control | [3] 101 % of control | [4] 91 % of control

CCS(=O)(=O)C1C2CCC(O2)C1S(=O)(=O)CC (configuration not stated)
inactive: [14] 94 % of control | [5] 101 % of control | [6] 90 % of control

CC(=O)Nc1cc([N+](=O)[O-])ccc1C
inactive: [7] 100 % of control | [8] 105 % of control

O=C(OCc1ccccc1)C1CCCN1Cc1ccc2c(c1)OCO2 (configuration not stated)
inactive: [1] 93 % of control | [4] 96 % of control

CN(C)N=Nc1cn(C2OC(CO)C(O)C2O)c(=O)[nH]c1=O (configuration not stated)
inactive: [15] 111 % of control | dose: 200.0 mg/kg/injection, schedule: Q01DX009 (ip), vehicle: saline 120 % of control

CCCCCCCc1nc(N)nc(N2CCOCC2)n1
inactive: [14] 89 % of control | [5] 100 % of control | [6] 110 % of control

CC(=O)Nc1cccc(N)c1
inactive: dose: 25.0 mg/kg/injection, schedule: Q01DX009 (ip), vehicle: saline 95 % of control | dose: 25.0 mg/kg/injection, schedule: Q04DX003 (ip), vehicle: saline 103 % of control | dose: 50.0 mg/kg/injection, schedule: Q01DX009 (ip), vehicle: saline 108 % of control | dose: 50.0 mg/kg/injection, schedule: Q04DX003 (ip), vehicle: saline 97 % of control | [15] 101 % of control | [14] 86 % of control | [2] 94 % of control | [5] 107 % of control

CC(=O)Oc1c(C(C)(C)C)cc([N+](=O)[O-])c(C)c1[N+](=O)[O-]
inactive: dose: 25.0 mg/kg/injection, schedule: Q04DX002 (ip), vehicle: Klucel (hydroxypropylcellulose) (HPC) 95 % of control | dose: 50.0 mg/kg/injection, schedule: Q04DX002 (ip), vehicle: Klucel (hydroxypropylcellulose) (HPC) 97 % of control

CC(C)(CO)C(=O)O
inactive: [1] 101 % of control | [3] 98 % of control | [4] 106 % of control
